Where “and” joins values, the source holds several entries; their conditions need not be identical. Equal values may be shown once. Read-outs that look alike come from different tables or passages of the source.
Experiments:
[1] = molecular target: KRAS G12V (Homo sapiens (Human), UniProt P01116+P62937, G12V); test: Ras-Raf (BRAF RBD) disruption / FRET / MOA assay, KRAS G12V; format: biochemical; conditions: read-out: IC50* KRAS G12V FRET data
In short: (§1)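 Ternary complex formation (Ras–compound–cyclophilin A) displacing BRAF RBD, monitored by TR-FRET. Three hours at 25° C with compound (top 30 μM final), then 1.5 h with the labelled antibodies. Lower ratio than DMSO indicates disruption; IC50 reported.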

[2] = system: NCI-H358 (K-Ras G12C); test: CellTiter-Glo cell viability assay, NCI-H358; format: cell-based, human; conditions: NCI-H358, 5-day treatment, class symbols, read-out: Additional H358 Cell Viability assay data (K-Ras G12C, IC50)
In short: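 Four-parameter logistic fits were applied to luminescence data normalized against DMSO-treated wells. Readings were taken on day 5 following direct compound addition, after roughly 30 minutes at room temperature.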

[3] = molecular target: KRAS WT (Homo sapiens (Human), UniProt P01116+P62937); test: Ras-Raf (BRAF RBD) disruption / FRET / MOA assay, KRAS WT; format: biochemical; conditions: read-out: IC50* KRAS WT FRET data
Sequence of KRAS WT (P01116-2 other isoform, or with tags, fused parts or gaps): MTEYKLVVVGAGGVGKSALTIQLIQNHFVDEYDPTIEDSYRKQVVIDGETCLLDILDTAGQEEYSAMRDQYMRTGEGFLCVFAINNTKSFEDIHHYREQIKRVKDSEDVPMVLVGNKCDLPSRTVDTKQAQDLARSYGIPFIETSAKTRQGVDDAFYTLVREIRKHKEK
Sequence of KRAS WT (P62937 whole entry): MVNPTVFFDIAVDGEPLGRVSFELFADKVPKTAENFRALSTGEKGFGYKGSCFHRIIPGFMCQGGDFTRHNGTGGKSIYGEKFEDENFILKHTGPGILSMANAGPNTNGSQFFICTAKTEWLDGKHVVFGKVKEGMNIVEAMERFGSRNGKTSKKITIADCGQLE
In short: as §1

[4] = molecular target: K-Ras G12C (Homo sapiens (Human), UniProt P01116+P62937, G12C); test: Ras-Raf (BRAF RBD) disruption / FRET / MOA assay, KRAS G12C; format: biochemical; conditions: KRAS G12C; Ras-Raf disruption/FRET/MOA assay; read-out: IC50* KRAS G12C FRET data
Sequence of K-Ras G12C (P01116-2 other isoform, or with tags, fused parts or gaps G12C): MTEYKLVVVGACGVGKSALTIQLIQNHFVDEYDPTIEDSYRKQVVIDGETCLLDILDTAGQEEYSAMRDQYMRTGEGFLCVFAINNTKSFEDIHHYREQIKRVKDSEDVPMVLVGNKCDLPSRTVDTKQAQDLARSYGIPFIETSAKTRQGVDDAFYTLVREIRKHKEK
Sequence of K-Ras G12C (P62937 whole entry): as the sequence (P62937 whole entry) above
In short: as §1

[5] = molecular target: KRAS G12D (Homo sapiens (Human), UniProt P01116+P62937, G12D); test: Ras-Raf (BRAF RBD) disruption / FRET / MOA assay, KRAS G12D; format: biochemical; conditions: Ras-Raf disruption/FRET/MOA assay; class symbols; read-out: KRAS G12D FRET data IC50
Sequence of KRAS G12D (P01116-2 other isoform, or with tags, fused parts or gaps G12D): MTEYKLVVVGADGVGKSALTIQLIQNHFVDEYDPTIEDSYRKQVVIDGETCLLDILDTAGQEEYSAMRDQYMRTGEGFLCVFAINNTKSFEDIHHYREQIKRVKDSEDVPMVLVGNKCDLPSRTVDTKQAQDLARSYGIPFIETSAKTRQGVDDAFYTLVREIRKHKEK
Sequence of KRAS G12D (P62937 whole entry): as the sequence (P62937 whole entry) above
In short: as §1

[6] = molecular target: K-Ras G13C (Homo sapiens (Human), UniProt P01116+P62937, G13C); test: Ras-Raf (BRAF RBD) disruption / FRET / MOA assay, KRAS G13C; format: biochemical; conditions: KRAS G13C; Ras-Raf disruption/FRET/MOA assay; read-out: IC50* KRAS G13C FRET data
Sequence of K-Ras G13C (P01116-2 other isoform, or with tags, fused parts or gaps G13C): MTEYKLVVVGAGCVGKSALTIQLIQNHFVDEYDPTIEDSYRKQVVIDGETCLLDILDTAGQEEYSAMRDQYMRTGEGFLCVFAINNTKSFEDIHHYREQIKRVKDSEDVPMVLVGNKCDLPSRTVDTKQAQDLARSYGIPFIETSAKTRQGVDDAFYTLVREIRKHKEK
Sequence of K-Ras G13C (P62937 whole entry): as the sequence (P62937 whole entry) above
In short: as §1

[7] = molecular target: KRAS G13D (Homo sapiens (Human), UniProt P01116+P62937, G13D); test: Ras-Raf (BRAF RBD) disruption / FRET / MOA assay, KRAS G13D; format: biochemical; conditions: read-out: IC50* KRAS G13D FRET data
Sequence of KRAS G13D (P01116-2 other isoform, or with tags, fused parts or gaps G13D): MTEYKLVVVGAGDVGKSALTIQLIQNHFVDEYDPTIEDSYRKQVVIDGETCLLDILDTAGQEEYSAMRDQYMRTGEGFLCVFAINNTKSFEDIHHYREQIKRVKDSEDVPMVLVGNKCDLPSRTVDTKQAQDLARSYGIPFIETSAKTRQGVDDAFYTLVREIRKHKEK
Sequence of KRAS G13D (P62937 whole entry): as the sequence (P62937 whole entry) above
In short: as §1

[8] = molecular target: NRAS G12C (Homo sapiens (Human), UniProt P01111+P62937, G12C); test: Ras-Raf (BRAF RBD) disruption / FRET / MOA assay, NRAS G12C; format: biochemical; conditions: read-out: IC50* NRAS G12C FRET data
Sequence of NRAS G12C (P01111 whole entry G12C): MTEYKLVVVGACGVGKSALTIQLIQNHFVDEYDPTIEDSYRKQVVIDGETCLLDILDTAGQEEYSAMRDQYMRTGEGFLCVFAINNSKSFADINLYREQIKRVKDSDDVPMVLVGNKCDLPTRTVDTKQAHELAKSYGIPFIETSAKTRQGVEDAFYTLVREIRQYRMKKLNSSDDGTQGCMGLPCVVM
Sequence of NRAS G12C (P62937 whole entry): as the sequence (P62937 whole entry) above
In short: as §1

[9] = molecular target: KRAS G12S (Homo sapiens (Human), UniProt P01116+P62937, G12S); test: Ras-Raf (BRAF RBD) disruption / FRET / MOA assay, KRAS G12S; format: biochemical; conditions: Ras-Raf disruption/FRET/MOA assay; class symbols; read-out: KRAS G12S FRET data IC50
Sequence of KRAS G12S (P01116-2 other isoform, or with tags, fused parts or gaps G12S): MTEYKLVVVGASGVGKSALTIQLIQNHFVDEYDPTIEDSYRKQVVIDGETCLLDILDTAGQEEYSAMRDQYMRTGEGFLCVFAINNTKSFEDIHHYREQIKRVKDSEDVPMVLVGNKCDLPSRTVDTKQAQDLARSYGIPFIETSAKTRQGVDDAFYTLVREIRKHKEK
Sequence of KRAS G12S (P62937 whole entry): as the sequence (P62937 whole entry) above
In short: as §1

[10] = system: NCI-H358 cells (K-Ras G12C); test: Potency assay: pERK in NCI-H358 cells; format: cell-based, human; conditions: Homo sapiens, NCI-H358; H358 KRAS G12C; read-out: pERK EC50
In short: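 Compounds are dosed as ten 3-fold dilutions from a 10 mM DMSO stock, in duplicate, and left on cells for 4 h at 37 °C, 5% CO2. Phospho-ERK1/2 is then quantified by AlphaLISA SureFire Ultra or In-Cell Western, and IC50 is derived from a 4-parameter sigmoid against log concentration.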

Sequence of KRAS G12V (P01116-2 other isoform, or with tags, fused parts or gaps G12V): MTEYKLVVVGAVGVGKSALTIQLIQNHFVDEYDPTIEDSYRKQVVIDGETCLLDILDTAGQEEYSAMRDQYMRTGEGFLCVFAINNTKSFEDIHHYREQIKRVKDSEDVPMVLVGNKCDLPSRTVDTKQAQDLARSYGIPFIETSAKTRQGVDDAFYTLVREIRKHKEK
Sequence of KRAS G12V (P62937 whole entry): as the sequence (P62937 whole entry) above

Structure (SMILES)	IC50 [1]	IC50 ([2]; Homo sapiens, NCI-H358, 120 h) [µM]	IC50 [3]	IC50 [4]	IC50 [5]	IC50 [6]	IC50 [7]	IC50 [8]	IC50 [9]	IC50 [2] [µM]	EC50 [10] [µM]
C=CC(=O)N1CC[C@H](C(=O)N(C)[C@H](C(=O)N[C@H]2Cc3cccc(c3)-c3ccc4c(c3)c(c(-c3ccccc3[C@H](C)OC)n4CC)CC(C)(C)COC(=O)[C@@H]3CCCN(N3)C2=O)C(C)C)C1 (atropisomer, axis not shown) [Example A114]	> 10 µM	0.1 to 1	> 10 µM	> 10 µM	> 10 µM	> 10 µM	> 10 µM	> 10 µM	> 10 µM		
CCn1c(-c2cccnc2[C@H](C)OC)c2c3cc(ccc31)-c1cccc(c1)C[C@H](NC(=O)[C@H](C(C)C)N(C)C(=O)[C@H]1CCN(C(=O)/C=C/CN3CC(OC)C3)C1)C(=O)N1CCC[C@H](N1)C(=O)OCC(C)(C)C2 (atropisomer, axis not shown) [Example A203]	> 10 µM		> 10 µM	1 to 10 µM	> 10 µM	> 10 µM	> 10 µM	1 to 10 µM	> 10 µM	> 1	
C=CC(=O)N1CC[C@H](C(=O)N(C)[C@H](C(=O)N[C@H]2Cc3ncc(n3C)-c3ccc4c(c3)c(c(-c3cccnc3[C@H](C)OC)n4CC)CC(C)(C)COC(=O)[C@@H]3CCCN(N3)C2=O)C(C)C)C1 (atropisomer, axis not shown) [Example A276]	> 10 µM	> 1	> 10 µM	1 to 10 µM	> 10 µM	> 10 µM	> 10 µM	1 to 10 µM	> 10 µM		
C=CC(=O)N1CC[C@H](C(=O)N(C)[C@H](C(=O)N[C@H]2Cc3nc(cs3)-c3ccc4c(c3)c(c(-c3cccnc3[C@H](C)OC)n4CC)CC(C)(C)C/C=C/[C@@H]3CCCN(N3)C2=O)C(C)C)C1 (atropisomer, axis not shown) [Example A286]	> 10 µM	> 1	> 10 µM	> 10 µM	> 10 µM	> 10 µM	> 10 µM	> 10 µM	> 10 µM		
C=CC(=O)N1CC[C@H](C(=O)N(C)[C@H](C(=O)N[C@H]2Cc3nc(cs3)-c3ccc4c(c3)c(c(-c3cccnc3[C@H](C)OC)n4CC)CC(C)(C)CCC[C@@H]3CCCN(N3)C2=O)C(C)C)C1 (atropisomer, axis not shown) [Example A288]	> 10 µM	> 1	> 10 µM	> 10 µM	> 10 µM	> 10 µM	> 10 µM	> 10 µM	> 10 µM		
C/C=C(\C)S(=O)(=O)N1CC[C@H](C(=O)N(C)[C@H](C(=O)N[C@H]2Cc3cccc(c3)-c3ccc4c(c3)c(c(-c3cccnc3[C@H](C)OC)n4CC)CC(C)(C)COC(=O)[C@@H]3CCCN(N3)C2=O)C(C)C)C1 (atropisomer, axis not shown) [Example A308]	> 10 µM	0.1 to 1	> 10 µM	> 10 µM	> 10 µM	1 to 10 µM	> 10 µM	> 10 µM	> 10 µM		
C=CC(=O)N1CC[C@H](C(=O)N(C2CC2)[C@H](C(=O)N[C@H]2Cc3cccc(c3)-c3ccc4c(c3)c(c(-c3cccnc3[C@H](C)OC)n4CC)CC(C)(C)COC(=O)[C@@H]3CCCN(N3)C2=O)C(C)C)C1 (atropisomer, axis not shown) [Example A398]	1 to 10 µM	0.1 to 1	1 to 10 µM	1 to 10 µM	> 10 µM	1 to 10 µM	> 10 µM	1 to 10 µM	> 10 µM		
C=CC(=O)N1CC[C@H](C(=O)N(C)[C@H](C(=O)N[C@H]2Cc3cccc(c3)-c3ccc4c(c3)c(c(-c3cccnc3[C@H](C)OC)n4CC)CC(C)(C)COC(=O)[C@@H]3CCCN(N3)C2=O)C(C)C)[C@@H]1C (atropisomer, axis not shown) [Example A480]	> 10 µM	> 1	> 10 µM	1 to 10 µM	> 10 µM	1 to 10 µM	> 10 µM	1 to 10 µM	> 10 µM		
C=CC(=O)N1CC[C@H](C(=O)N(C)[C@H](C(=O)N[C@H]2Cn3cnc(n3)-c3ccc4c(c3)c(c(-c3cccnc3[C@H](C)OC)n4CC)CC(C)(C)COC(=O)[C@@H]3CCCN(N3)C2=O)C(C)C)C1 (atropisomer, axis not shown) [Example A506]	1 to 10 µM	0.1 to 1	1 to 10 µM	0.1 to 1 µM	> 10 µM	1 to 10 µM	> 10 µM	0.1 to 1 µM	1 to 10 µM		
C=CC(=O)N1CC[C@H](C(=O)N(C)[C@H](C(=O)N[C@H]2Cc3cccc(c3)-c3ccc4c(c3)c(c(-c3cc(C5CCN(C)CC5)cnc3[C@H](C)OC)n4CC)CC(C)(C)COC(=O)[C@@H]3CCCN(N3)C2=O)C(C)C)C1 (atropisomer, axis not shown) [Example A516]	> 10 µM		> 10 µM	1 to 10 µM	> 10 µM	1 to 10 µM	> 10 µM	1 to 10 µM	> 10 µM	> 1	
C=CC(=O)N1CC(OCC(C(=O)N[C@H]2Cc3cc(cc(C(F)F)c3)-c3ccc4c(c3)c(c(-c3cccnc3[C@H](C)OC)n4CC(F)(F)F)CC(C)(C)COC(=O)[C@@H]3CCCN(N3)C2=O)C(C)C)C1 (mixture of isomers) [Example A428]	> 10 µM	> 1	> 10 µM	> 10 µM	> 10 µM	> 10 µM	> 10 µM	> 10 µM	> 10 µM		
C=CC(=O)C1C[C@@H](C(=O)N(C)[C@H](C(=O)N[C@H]2Cc3cc(O)cc(c3)-c3ccc4c(c3)c(c(-c3ccc5c(c3)CN(C)C5)n4CC)CC(C)(C)COC(=O)[C@@H]3CCCN(N3)C2=O)C(C)C)CN1 (stereo partly drawn) [Example A212]	1 to 10 µM and > 10 µM		1 to 10 µM and > 10 µM	0.1 to 1 µM and 1 to 10 µM	> 10 µM	1 to 10 µM and > 10 µM	1 to 10 µM and > 10 µM	0.1 to 1 µM and 1 to 10 µM	1 to 10 µM and > 10 µM		< 5
C=CC(=O)C1C[C@@H](C(=O)N(C)[C@H](C(=O)N[C@H]2Cc3cc(O)cc(c3)-c3ccc4c(c3)c(c(-c3ccccc3CCOC)n4CC)CC(C)(C)COC(=O)[C@@H]3CCCN(N3)C2=O)C(C)C)[C@@H](OC)N1 (stereo partly drawn) [Example A214]	> 10 µM		1 to 10 µM	10 nM to 100 nM (2×) and 1 µM to 10 µM (2×)	> 10 µM	1 µM to 10 µM (3×) and > 10 µM	> 10 µM	100 nM to 1 µM and > 10 µM (2×)	1 µM to 10 µM (2×) and > 10 µM (2×)		< 5
CCn1c(-c2ccccc2CCOC)c2c3cc(ccc31)-c1cc(O)cc(c1)C[C@H](NC(=O)[C@H](C(C)C)N(C)C(=O)c1ccc(NC(=O)/C=C/CN(C)C)cc1)C(=O)N1CCC[C@H](N1)C(=O)OCC(C)(C)C2 [Example A225]	> 10 µM		1 to 10 µM	10 nM to 100 nM (2×) and 1 µM to 10 µM (2×)	> 10 µM	1 µM to 10 µM (3×) and > 10 µM	> 10 µM	100 nM to 1 µM and > 10 µM (2×)	1 µM to 10 µM (2×) and > 10 µM (2×)		< 5
CCn1c(-c2cccnc2COC)c2c3cc(ccc31)-c1cc(O)cc(c1)C[C@H](NC(=O)[C@H](C(C)C)N(C)C(=O)[C@H]1CCN(C(=O)C#CC3(N(C)C)COC3)C1)C(=O)N1CCC[C@H](N1)C(=O)OCC(C)(C)C2 [Example A241]	0.1 to 1 µM and 1 to 10 µM		1 to 10 µM	0.01 to 0.1 µM	1 to 10 µM and > 10 µM	0.1 to 1 µM	1 to 10 µM	0.01 to 0.1 µM	0.1 to 1 µM and 1 to 10 µM		< 5
CO[C@@H](C)c1ncccc1-c1c2c3cc(ccc3n1CC(F)(F)F)-c1nnc(o1)C[C@H](NC(=O)[C@H](C(C)C)N(C)C(=O)[C@H]1CCN(C(=O)C#CC(C)(C)N3CCC3)C1)C(=O)N1CCC[C@H](N1)C(=O)OCC(C)(C)C2 [Example A423]	1 to 10 µM		1 to 10 µM	0.01 to 0.1 µM	> 10 µM	0.1 to 1 µM	> 10 µM	0.01 to 0.1 µM	1 to 10 µM		< 5

Source: US11566007B2, “Ras inhibitors” (Revolution Medicines, Inc., priority 2019, dated 2023)
